Data from patent US3989837A, “Pharmaceutical compositions” (Chinoin Gyogyszer-es Vegyeszeti Termekek Gyara RT, priority 1972, dated 1976).
Values joined by “and” are separate entries in the source; they are usually repeats but may differ in a detail not shown here. Identical values can stand only once.

Key:
kaolin oedema = test: Kaolin oedema test (Table 1); type: in vivo, rat; set-up: oedema, treated: unit not given here; conditions: female rats
Experimental: The experiments were performed on female rats weighing 110-130 g. divided into groups of 10 animals. The rats were starved for 24 hours prior to the experiment. The test substance was administered orally, the controls obtained the suspending solution without the active ingredient. 1 hour following drug administration the animals were injected s.c. 0.1 ml. of a suspension of 5% kaolin into the foot pad. During the following period the inflammatory reaction is manifested by a swelling of the foot. The diameter of the foot of the treated and control animals was measured 2, 3.5 and 5 hours after s.c. injection of kaolin. The efficiency of the test compound was calculated from the difference of the diameter of the foot in the treated and control animals. Significance was calculated with Student's t test and the effect of the drug was expressed also as per cent.

writhing = test: Analgesic effect, acetic acid writhing (Table 3); type: in vivo, mouse; conditions: male mice
Experimental: Male mice weighing 15-18 g. and starved for 16 hours were used for the experiments. The drug was given orally, the control mice obtained a drug-free suspension. After 2 and 4 hours (2^h and 4^h respectively) the animals were injected with […], acetic acid solution (0.1 ml. per mouse) intraperitoneally. Upon the effect of the injection the animals reacted in a few minutes with writhing. […] Comparison of the number of writhes in the control and the treated animals served as a basis of evaluation of drug effect. Significance was calculated by Student's t test, and efficiency of the drug was expressed as per cent. Each experiment was performed on a group of 12-16 animals.

mice = test: Toxicity on mice by oral administration, once daily for 7 days (Table 4); type: in vivo; conditions: male mice
Experimental: The experiments were performed on unstarved male mice of […]. body-weight.
The compound was administered in the form of 1% suspension stabilized with methylcellulose. […] The animals obtained the drug once daily over a period of 7 dyas, i.e. 168 hours. The number of deaths was registered each day. LD50 values were calculated according to Litchfield and Wilcoxon.

rats [1] = test: Testing of ulcerogenic effect in rats (Table 5); type: in vivo, rat; conditions: 5 days
Experimental: Unstarved rats weighing 160-180 g. were used for the experiment. The animals were divided into groups of 20. The compounds were administered as 1% suspensions stabilized with methylcellulose, by the oral route, at a volume of 0.2 ml./100 g. Treatment was continued for 5 days (1 treatment/day), and was suspended on the 6th and 7th day. On the 8th experimental day the […] were killed by ether overdosage. After laparatomy the stomachs were removed, washed twice in water and thereafter dipped in formaline. An incision was made along the large curvature, then again rinced with water and spread on a PVC plate. The gastric mucosa is evaluated macroscopically by two methods:
1. The ulcer index was calculated. The animals were divided into groups on the ground of the diameter of the largest ulcer and the extent of the changes was scored as follows:
The number of animals in the individual groups was multiplied by the number of scores and the proucts of multiplications are added and the sum thus obtained is divided by the number of animals.
2. Ulcer counts were calculated. The number of ulcers was counted on each stomach and the total number of ulcers was divided by the number of animals. […] Changes found in the intestinates were evaluated as "all or naught" and expressed in per cent of the number of animals.

rats [2] = test: Toxicity on rats after oral administration, 3 months (Table 2'); type: in vivo, rat; conditions: for Perished animals/total animals, Sum / Perished animals/total animals: male rats
Experimental: 10 animals were treated with the substance in question for 3 months. […] A dosage corresponding to 20 mg./kg. of Indomethacine was added during the first, that corresponding to 40 mg./kg. of Indomethacine during the second, and that corresponding to 60 mg./kg. of Indomethacine during the third month. The animals of the control group received suspending agent only.

[3] = oral 13.7 mg./kg., 2 h after kaolin
[4] = oral 13.7 mg./kg., 3.5 h after kaolin
[5] = oral 13.7 mg./kg., 5 h after kaolin
[6] = oral 34 mg./kg., 2 h after kaolin
[7] = oral 34 mg./kg., 3.5 h after kaolin
[8] = oral 34 mg./kg., 5 h after kaolin
[9] = oral 51 mg./kg., 2 h after kaolin
[10] = oral 51 mg./kg., 3.5 h after kaolin
[11] = oral 51 mg./kg., 5 h after kaolin

## COc1ccc2c(c1)c(CC(=O)OCC(Cl)(Cl)Cl)c(C)n2C(=O)c1ccc(Cl)cc1 [Example 5, 1-(p-chlorobenzoyl)-2-methyl-5-methoxy-indol-3-yl-acetic-acid trichloroethyl ester]
Kaolin oedema; [3]
  Inhibition of kaolin oedema: 9.8% and 10.6%
  oedema, treated: 2.39±0.36 and 2.28±0.50
Kaolin oedema; [4]
  Inhibition of kaolin oedema: 15.1% and 19.0%
  oedema, treated: 2.54±0.53 and 2.35±0.54
Kaolin oedema; [5]
  Inhibition of kaolin oedema: 22.2% and 15.1%
  oedema, treated: 2.56±0.53 and 2.77±0.58
Kaolin oedema; [6]
  Inhibition of kaolin oedema: 11.0% and 13.6%
  oedema, treated: 2.27±0.30 and 2.46±0.49
Kaolin oedema; [7]
  Inhibition of kaolin oedema: 22.1%
  oedema, treated: 2.26±0.30 and 2.47±0.41
Kaolin oedema; [8]
  Inhibition of kaolin oedema: 24.7% and 29.9%
  oedema, treated: 2.48±0.36 and 2.72±0.62
Kaolin oedema; [9]
  Inhibition of kaolin oedema: 19.5%
  oedema, treated: 1.86±0.32
Kaolin oedema; [10]
  Inhibition of kaolin oedema: 24.6%
  oedema, treated: 2.05±0.30
Kaolin oedema; [11]
  Inhibition of kaolin oedema: 26.4%
  oedema, treated: 2.23±0.28
writhing; oral 5 mg./kg., 2 h
  Analgesic effect: 29.0% and 20.7%
  number of writhes, treated: 28.0±9.5 and 41.1±12.2
writhing; oral 5 mg./kg., 4 h
  Analgesic effect: 18.6% and 20.1%
  number of writhes, treated: 32.1±12.4 and 41.4±12.6
writhing; oral 17 mg./kg., 2 h
  Analgesic effect: 60.8% and 51.4%
writhing; oral 17 mg./kg., 4 h
  Analgesic effect: 56.7% and 51.0%
  number of writhes, treated: 13.7±10.7 and 20.6±12.3
mice; oral 1000 mg/kg, 24 h
  Number of deaths/number of treated animals: 0/10
mice; oral 1000 mg/kg, 48 h
  Number of deaths/number of treated animals: 0/10
mice; oral 1000 mg/kg, 72 h
  Number of deaths/number of treated animals: 0/10
mice; oral 1000 mg/kg, 96 h
  Number of deaths/number of treated animals: 0/10
mice; oral 1000 mg/kg, 120 h
  Number of deaths/number of treated animals: 0/10
mice; oral 1000 mg/kg, 144 h
  Number of deaths/number of treated animals: 0/10
mice; oral 1000 mg/kg, 168 h
  Number of deaths/number of treated animals: 0/10
mice; oral 1500 mg/kg, 24 h
  Number of deaths/number of treated animals: 0/10
mice; oral 1500 mg/kg, 48 h
  Number of deaths/number of treated animals: 0/10
mice; oral 1500 mg/kg, 72 h
  Number of deaths/number of treated animals: 0/10
mice; oral 1500 mg/kg, 96 h
  Number of deaths/number of treated animals: 0/10
mice; oral 1500 mg/kg, 120 h
  Number of deaths/number of treated animals: 0/10
mice; oral 1500 mg/kg, 144 h
  Number of deaths/number of treated animals: 0/10
mice; oral 1500 mg/kg, 168 h
  Number of deaths/number of treated animals: 0/10
mice; oral 2000 mg/kg, 24 h
  Number of deaths/number of treated animals: 0/10
mice; oral 2000 mg/kg, 48 h
  Number of deaths/number of treated animals: 0/10
mice; oral 2000 mg/kg, 72 h
  Number of deaths/number of treated animals: 2/10
mice; oral 2000 mg/kg, 96 h
  Number of deaths/number of treated animals: 2/10
mice; oral 2000 mg/kg, 120 h
  Number of deaths/number of treated animals: 4/10
mice; oral 2000 mg/kg, 144 h
  Number of deaths/number of treated animals: 6/10
mice; oral 2000 mg/kg, 168 h
  Number of deaths/number of treated animals: 6/10
mice; oral 2500 mg/kg, 24 h
  Number of deaths/number of treated animals: 0/10
mice; oral 2500 mg/kg, 48 h
  Number of deaths/number of treated animals: 1/10
mice; oral 2500 mg/kg, 72 h
  Number of deaths/number of treated animals: 1/10
mice; oral 2500 mg/kg, 96 h
  Number of deaths/number of treated animals: 3/10
mice; oral 2500 mg/kg, 120 h
  Number of deaths/number of treated animals: 4/10
mice; oral 2500 mg/kg, 144 h
  Number of deaths/number of treated animals: 6/10
mice; oral 2500 mg/kg, 168 h
  Number of deaths/number of treated animals: 7/10
mice; oral 3000 mg/kg, 24 h
  Number of deaths/number of treated animals: 0/10
mice; oral 3000 mg/kg, 48 h
  Number of deaths/number of treated animals: 1/10
mice; oral 3000 mg/kg, 72 h
  Number of deaths/number of treated animals: 3/10
mice; oral 3000 mg/kg, 96 h
  Number of deaths/number of treated animals: 4/10
mice; oral 3000 mg/kg, 120 h
  Number of deaths/number of treated animals: 5/10
mice; oral 3000 mg/kg, 144 h
  Number of deaths/number of treated animals: 7/10
mice; oral 3000 mg/kg, 168 h
  Number of deaths/number of treated animals: 7/10
Rats [1]; oral 27.3 mg./kg.
  Deaths: 1/20
  Number of surviving animals: 19
  Per cent of animals exhibiting changes of intest. mucosa: 10.5 Per cent
  Ulcer number: 0
Rats [1]; oral 54.7 mg./kg.
  Deaths: 5/20
  Number of surviving animals: 15
  Per cent of animals exhibiting changes of intest. mucosa: 80 Per cent
  Ulcer number: 0.27
Rats [2]; oral 27.3 mg./kg., 1st month
  Perished animals/total animals, Sum: 1/10
Rats [2]; oral 54.7 mg./kg., 2nd month
  Perished animals/total animals: 1/9
Rats [2]; oral 54.7 mg./kg., through 2nd month
  Perished animals/total animals, Sum: 2/10
Rats [2]; oral 80.0 mg./kg., 3rd month
  Perished animals/total animals: 2/8
Rats [2]; oral 80.0 mg./kg., through 3rd month
  Perished animals/total animals, Sum: 4/10
Rats [2]; rats (and mice), oral
  toxicity compared with Indomethacine: far less toxic than Indomethacine not only on mice but also on rats
Rats [2]; rats, oral, observation period
  perishment during the observation period compared with Indomethacine: the same as for Indomethacine
